Laboratory results from US10626349B2, “Cleavable surfactants” (PROMEGA CORPORATION, priority 2007, dated 2020).

Experiments:
[1] = target: T1, Myoglobin from horse heart digested with trypsin (Equus caballus, UniProt P68082); assay: Myoglobin/Trypsin digest, HPLC peak area versus RapiGest control; assay type: biochemical; conditions: 0.01% surfactant, trypsin 50:1, 20 minutes at 37° C.; ratio to RapiGest control, >1 = more digestion
T1 construct: Myoglobin from horse heart; from tissue; host or cells: horse heart
Procedure: Myoglobin from horse heart (typically 25 μs) was digested with trypsin (Promega) at a 50:1 ratio in a volume of 125 μL (typical) of 50 mM Ammonium bicarbonate for 20 minutes at 37° C. with 0.01% RapiGest™ surfactant or 0.01% of the indicated compound of the invention (upper and lower chromatograms, respectively). TFA was added to 0.5-2% and the mixtures were incubated at 37° C. or 65° C. for 20 or 30 minutes. Degraded surfactant was removed by centrifugation at 14,000×g for 5 minutes. HPLC analysis was performed on a 25-50 μL reaction sample using an HP1050 LC system with an Agilent Sorbax SB-C18 column (3.0×100 mm, 3.5 micron) and a gradient of 0.1% TFA (97.5% initial) and Acetonitrile, 0.01% TFA (55% final condition followed by a 100% wash step) and a flow rate of 0.75 mL/min. Peptides were detected at 214 and 280 nm.
(§1) For each compound numbered below in Example 12, the rate of enhanced digestion was determined from the ratio of the surfactant peak area (surfactant # Pk. Area) to the Rapigest™ surfactant peak area (RG Pk area). Peak area was determined as the sum of all peaks integrated from 8-22 minutes.

[2] = target: T2, Bacteriorhodopsin digested with chymotrypsin (Halobacterium salinarum, UniProt P02945); assay: Bacteriorhodopsin/Chymotrypsin digest, HPLC peak area versus RapiGest control; assay type: biochemical; conditions: 0.025% surfactant
T2 sequence (P02945 14-261 limits assumed): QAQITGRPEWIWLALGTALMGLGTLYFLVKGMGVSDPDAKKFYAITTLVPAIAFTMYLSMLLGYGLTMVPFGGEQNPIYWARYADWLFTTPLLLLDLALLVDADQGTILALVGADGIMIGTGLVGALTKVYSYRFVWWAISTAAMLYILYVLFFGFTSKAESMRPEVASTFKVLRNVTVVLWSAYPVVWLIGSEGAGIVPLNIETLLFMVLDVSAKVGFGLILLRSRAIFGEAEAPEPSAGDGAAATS
Procedure: Bacteriorhodopsin (25 μs) was heated with 0.025% Rapigest™ surfactant or the indicated compound of the invention for 5 minutes at 95° C., then digested with chymotrypsin (Sigma) at a 10:1 ratio in 125 μL 50 mM Ammonium bicarbonate for 1 hour at 37° C. After one hour TFA was added to 0.5-2% and the mixtures were incubated at 37° C. or 65° C. for 20 or 30 minutes. Degraded surfactant was removed by centrifugation at 14,000×g for 5 minutes. An aliquot of 50-100 μL of digested protein was analyzed by HPLC as described above.
Compound 3211, 3212, 3224 and Rapigest™ surfactant control for FIG. 13C reactions: Bacteriorhodopsin (25 μs) was solubilized with 0.025% compound of interest for 1-2 minutes at room temperature, then digested with chymotrypsin (Sigma) at a 10:1 ratio in 125 μL 50 mM Ammonium bicarbonate for 1 hour at 37° C. After one hour TFA was added to 0.5-2% and the mixtures were incubated at 37° C. or 65° C. for 20 or 30 minutes. Degraded surfactant was removed by centrifugation at 14,000×g for 5 minutes. An aliquot of 50-100 μL of digested protein was analyzed by HPLC as described above.
as §1

[3] = Hydrolytic stability in 50 mM ammonium bicarbonate (reverse-phase HPLC); assay type: physicochemical
Procedure: Hydrolytic stability was measured by monitoring the change in retention time of the intact surfactant by reverse-phase HPLC. The ½-life is defined as the time required to reach 50% degradation.

[4] = Solubility of the surfactant; conditions: for solubility in aqueous solutions (concentration dissolved to) / solubility in aqueous solutions (in words): aqueous solution; for solubilized in DMSO to: 100% DMSO
[5] = Acid and thermal degradation of the surfactant; conditions: for degradation after overnight incubation (in words): concentration not given; for acid-lability (in words): 0.5% TFA at 37° C. where stated (3237: 30 minutes), 3271 by TLC analysis; for thermolability (in words): 3266: 5 minutes at 95° C.
[6] = surfactant conc. 0.0025% in 50 mM ammonium bicarbonate
[7] = surfactant conc. 0.025% in 50 mM ammonium bicarbonate
[8] = BR heated (boiled) with surfactant 5 minutes at 95° C., chymotrypsin 10:1, 1 hour at 37° C., ratio to RapiGest control
[9] = 0.01% solution, 37° C. where stated

T1 sequence (P68082 2-154 limits assumed): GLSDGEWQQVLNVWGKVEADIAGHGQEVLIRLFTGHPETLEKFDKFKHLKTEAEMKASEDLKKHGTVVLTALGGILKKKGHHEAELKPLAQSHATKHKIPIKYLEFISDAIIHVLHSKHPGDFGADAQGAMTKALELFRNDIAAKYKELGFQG

SMILES | surfactant Pk area/RG Pk area, Myoglobin/Trypsin digest [1] | solubility in aqueous solutions (concentration dissolved to) [4] [%] | surfactant Pk area/RG Pk area, Bacteriorhodopsin/Chymotrypsin digest [2, 8] | further results
CCCCCCCCCCCCC(OC(=O)NCCCS(=O)(=O)O)c1ccco1 (centres unmarked) [Compound 3224] | 1.3 | 0.25 | – | surfactant Pk area/RG Pk area, Bacteriorhodopsin/Chymotrypsin digest ([2]; BR solubilized at room temperature (not boiled), RapiGest control boiled): 0.74; ½-life [3, 6]: 1.3 h; ½-life [3, 7]: 8.3 h; ½-life ([3]; surfactant conc. 0.10% in 50 mM ammonium bicarbonate): 23 h; ½-life ([3]; surfactant conc. 0.25% in 50 mM ammonium bicarbonate): 22 h; solubility after adding ACN ([4]; ACN added to 20%): 2%
CCCCCCCC(C)(C)OC(=O)NCC(O)CS(=O)(=O)O (centres unmarked) [Compound 3204] | 0.87 | 0.5 | 0.55 | degradation rate (grade in words) [5]: moderate
CCCCCCCCCCC(OC(=O)NCCCS(=O)(=O)O)c1cc(OC)cc(OC)c1 (centres unmarked) [Compound 3236] | 1.4 | 1 | 0.71 | degradation by acid (0.5% TFA) or by heat (boiling), in words ([5]; 3236: 0.1% solution in 0.5% TFA 30 minutes at 37° C. or 5 minutes of boiling without TFA): no degradation was observed
CCCCCCCCCCC(OC(=O)NCCCS(=O)(=O)O)c1ccc(C(F)(F)F)cc1 (centres unmarked) [Compound 3200] | 0.7 | ~0.01 | 0.8 | degradation after overnight incubation (in words) [5]: No degradation was observed even after overnight incubation
CCCCCCCCCCC(OC(=O)NCCCS(=O)(=O)O)c1ccccc1OC (centres unmarked) [Compound 3237] | 1.4 | 0.5 | 1 | acid-lability (in words) [5]: Moderate degradation was observed
CCCCCCCCCCC1COC(c2cc(OCCCS(=O)(=O)[O-])ccc2[N+](=O)[O-])O1.[Na+] (centres unmarked) [Compound 3225] | 1.1 | – | 0.9 | solubilized in DMSO to [4]: 10%; solubility in aqueous solutions (in words) [4]: Not soluble in aqueous solutions; acid-lability (in words) [5]: slowly degrades in 0.5% TFA at 37 °C; thermolability (in words) [5]: No thermolability was observed
CCCCCCCCCCOc1ccc(C(OCCN(CCCCS(=O)(=O)[O-])CCCCS(=O)(=O)[O-])(c2ccccc2)c2ccc(OC)cc2)cc1.[Na+].[Na+] (centres unmarked) [Compound 3220] | 0.2 | 1 | 0.8 | time to degradation in 0.5% TFA ([5]; 37° C. where stated, 0.1% solution for 3220 and 3266): ≤ 15 min; thermolability (in words) [5]: moderate thermolability
CCCCCCCCCCCC(C)(C)OC(=O)NCC(O)CS(=O)(=O)[O-].[Na+] (centres unmarked) [Compound 3192] | 1.3 | 0.5 | 1.1 | degradation of 0.01% solution (in words) [5, 9]: degraded only after overnight incubation
CCCCCCOc1ccc(C(OCCCS(=O)(=O)[O-])(c2ccccc2)c2ccccc2)cc1.[Na+] [Compound 3202] | 1.1 | ~0.01 | 0.6 | time to degradation of 0.01% solution [5, 9]: ≤ 30 min
CCCCCCCCCSCC(C)(C)OC(=O)NCCCS(=O)(=O)O [Compound 3206] | 0.26 | 0.5 | 0.8 | degradation rate (grade in words) [5]: moderate
CCCCCCCCCCC1COC(c2cccc(OCCCS(=O)(=O)[O-])c2)O1.[Na+] (centres unmarked) [Compound 3228] | 1.4 | 1 | 1.2 | degradation rate (grade in words) [5]: low
CCCCCCCCCCCCCCC(OC(=O)NCCCS(=O)(=O)[O-])c1ccc(OC)cc1.[Na+] (centres unmarked) [Compound 3213] | 0.8 | 0.025 | 1.3 | ½-life [3, 6]: 62 h; ½-life [3, 7]: 128 h
CCCCCCCCCCCC(C)(C)OC(=O)SCCS(=O)(=O)O [Compound 3189] | 1.1 | 0.5 | 0.6 | degradation of 0.01% solution (in words) [5, 9]: degraded only after overnight incubation
CCCCCCCCCCOc1ccc(C(OCCN(CCCCS(=O)(=O)[O-])CCCCS(=O)(=O)[O-])(c2ccccc2)c2ccc(OCCCCCCCCCC)cc2)cc1.[Na+].[Na+] [Compound 3218] | 0.3 | – | 0.65 | solubilized in DMSO to [4]: 10%; solubility in aqueous solutions (in words) [4]: Insoluble in aqueous solutions
CCCCCCCCCCOc1ccc(C(OCCN(CCCCS(=O)(=O)[O-])CCCCS(=O)(=O)[O-])(c2ccccc2)c2ccccc2)cc1.[Na+].[Na+] [Compound 3215] | 0.56 | 1 | 1.2 | time to degradation in 0.5% TFA ([5]; 0.1% solution): 60 min; thermolability (in words) [5]: moderate thermolability
CCCCCCCCCCCC(C)(C)OC(=O)Nc1ccc(N(CCCCS(=O)(=O)[O-])CCCCS(=O)(=O)O)cc1.[Na+] [Compound 3194] | 0.72 | 0.5 | 1.1 | degradation after overnight incubation (in words) [5]: No degradation was observed even after overnight incubation
CCCCCCCCCOCC(C)(C)OC(=O)NCCCS(=O)(=O)O [Compound 3205] | 0.3 | 0.5 | 0.45 | degradation after overnight incubation (in words) [5]: No degradation was observed even after overnight incubation
